Results: ChEMBL document CHEMBL1124019, “Synthesis and anticholinesterase activity of (-)-N1-norphysostigmine, (-)-eseramine, and other N(1)-substituted analogues of (-)-physostigmine” (J Med Chem, 1988)

Biological target: Acetylcholinesterase (Electrophorus electricus, UniProt O42275)
Sequence (O42275 whole entry): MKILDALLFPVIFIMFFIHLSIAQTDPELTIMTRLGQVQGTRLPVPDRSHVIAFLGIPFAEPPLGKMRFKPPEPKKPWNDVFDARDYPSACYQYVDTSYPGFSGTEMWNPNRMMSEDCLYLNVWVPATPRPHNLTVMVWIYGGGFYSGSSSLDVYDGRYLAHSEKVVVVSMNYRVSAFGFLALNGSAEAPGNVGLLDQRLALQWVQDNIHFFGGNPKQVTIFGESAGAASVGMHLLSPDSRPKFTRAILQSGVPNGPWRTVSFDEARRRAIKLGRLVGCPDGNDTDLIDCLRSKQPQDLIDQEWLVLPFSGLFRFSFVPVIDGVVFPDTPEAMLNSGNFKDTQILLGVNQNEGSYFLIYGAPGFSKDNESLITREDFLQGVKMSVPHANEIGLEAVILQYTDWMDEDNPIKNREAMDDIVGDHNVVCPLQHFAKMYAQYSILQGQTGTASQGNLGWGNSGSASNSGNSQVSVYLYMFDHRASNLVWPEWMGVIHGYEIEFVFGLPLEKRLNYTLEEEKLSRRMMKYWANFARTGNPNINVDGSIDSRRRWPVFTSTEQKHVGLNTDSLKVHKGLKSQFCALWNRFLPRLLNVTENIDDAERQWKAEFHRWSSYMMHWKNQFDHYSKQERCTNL
Description: In vitro inhibitory activity against acetylcholinesterase from electric eel

| Compound | IC50 [µM] |
| --- | --- |
| CNC(=O)Oc1ccc2c(c1)[C@]1(C)CCN(C(=O)NC)C1N2C (some centres not stated) | 9.3 |
| CN(C)C(=O)Oc1cccc([N+](C)(C)C)c1 [NEOSTIGMINE BROMIDE] | 0.087 |
